Results as given in PMC4497506 (Journal of medicinal chemistry, 2015).
*1 amine or outer side, *2 acyl side, *3 side chain or, on linkers, in order; H or OH if unused. Where a SMILES comes first, the peptide text is derived from it. [ ]: non-standard residue; d: D form. X1 = O=C([C@@H]1C[C@H](n2cc([C]34[CH]5[CH]6[CH]7[CH]3[Fe]6754389%10[CH]4[CH]3[CH]8[CH]9[CH]4%10)nn2)CN1[*:1])[*:2]; X2 = O=C([C@@H]1C[C@H](n2nncc2[C]23[CH]4[CH]5[CH]6[CH]2[Fe]56432789[CH]3[CH]2[CH]7[CH]8[CH]39)CN1[*:1])[*:2]; Bta = N[C@@H](Cc1csc2ccccc12)C(=O)O

How the values were obtained:
wt gp120YU-2 = wt gp120YU-2 (Human immunodeficiency virus type 1 group M subtype B, UniProt P35961); assay: Competition SPR: inhibition of wt gp120YU-2 binding to immobilized sCD4; design: species or system HIV-1; conditions: relative to peptide 1
gp120YU-2 S375H = gp120YU-2 S375H (Human immunodeficiency virus type 1 group M subtype B, UniProt P35961, S370H); assay: Competition SPR: inhibition of gp120 S375H binding to sCD4; design: species or system HIV-1

| SMILES | weaker binding than peptide 1 (wt gp120YU-2) [fold] | inhibition of S375H mutant binding to sCD4 (gp120YU-2 S375H) |
| --- | --- | --- |
| CC[C@H](C)[C@H](N)C(=O)N[C@@H](CC(N)=O)C(=O)N[C@@H](CC(N)=O)C(=O)N[C@H](C(=O)N1C[C@@H](n2nncc2[C]23[CH]4[CH]5[CH]6[CH]2[Fe]56432789[CH]3[CH]2[CH]7[CH]8[CH]39)C[C@H]1C(=O)N[C@@H](Cc1c[nH]c2ccccc12)C(N)=O)[C@@H](C)CC (some centres unmarked) [peptide 6] (H-INNI[X2]W-NH2) | ~200 |  |
| CC[C@H](C)[C@H](N)C(=O)N[C@@H](CC(N)=O)C(=O)N[C@@H](CC(N)=O)C(=O)N[C@H](C(=O)N1C[C@@H](n2cc([C]34[CH]5[CH]6[CH]7[CH]3[Fe]6754389%10[CH]4[CH]3[CH]8[CH]9[CH]4%10)nn2)C[C@H]1C(=O)N[C@@H](Cc1csc2ccccc12)C(N)=O)[C@@H](C)CC (some centres unmarked) [peptide 3] (H-INNI[X1][Bta]-NH2) |  | resistant |
